Measurements taken from patent publication US20100003217A1, “Compounds and Pharmaceutical Compositions for the Treatment of Viral Infections” (priority 2008, published 2010).
“And” between values parts separate entries of the source, which are not always exact repeats. Equal values may be shown once.

What was measured:
[1] = Rat plasma pharmacokinetics of total radioactivity after [^14C]-Compound 1; format: in vivo, male Sprague-Dawley rats; settings: for Plasma total radioactivity concentration, Mean: group mean; for Plasma total radioactivity concentration: individual rats; for AUC0-24 of plasma total radioactivity: from average concentrations
Method: A preliminary rat metabolism study was conducted with radiolabeled Compound 1. The compound was labeled with [^14C] in the C-8 position of the guanine moiety. The objectives of the study were to determine, 1) the plasma pharmacokinetics of total radioactivity, 2) the time-course of total radioactivity and the amount of 2′-C-methyl guanosine-5′-TP in liver, 3) the major route of excretion, and 4) the metabolic profile in excreta, liver, and plasma.
Isotopically diluted [^14C]-Compound 1 was administered intravenously to male Sprague-Dawley rats at 50 mg/kg or by oral gavage at 100 mg/kg.
The plasma concentration-time data for total radioactivity was analyzed using Microsoft® Office Excel 2003 to obtain the area under the concentration-time curve (AUC). AUC0-24 (area under the concentration-time curve from 0 to 24 h after dosing) was calculated using the linear trapezoidal rule and nominal sampling times. For the IV dose group, concentration at time zero was extrapolated from the concentration data for the first two time points. The maximum (peak) plasma concentrations (Cmax) and the time to peak concentrations (tmax) were the observed values. Descriptive statistics were prepared in Excel.
Radioanalyses of plasma samples were conducted. The plasma concentration data for total radioactivity expressed as μg equivalents/mL are summarized below: […]

[2] = Metabolite profile in rat urine; format: in vivo, male Sprague-Dawley rats; settings: for % AD (percent of administered dose) / % HPLC (percent of HPLC peak area in the sample extract): group 1C (IV dose) pooled urine; for % of total urinary excretion / Total % AD: group 1C (IV dose) urine; for Total % AD: total of all collections
Method: Pooled urine samples were prepared for Groups 1C and 2C by mixing a fixed percent of the total volume for all four animals from the selected time points. For Group 1C, samples of the 1-, 2-, 6-, and 24-h collection intervals were pooled. For Group 2C, a pool of samples from all four animals was prepared for the 24 h collection intervals only. For 1-, 2-, and 6 h collection intervals, a urine sample of a single animal of Group 2A or 2B was used for analysis. All samples were brought to room temperature and vortexed briefly. The samples were diluted as necessary (2- to 20-fold) with appropriate aqueous mobile phase for the selected HPLC method. The pooled and diluted samples from the 24 h collection interval were centrifuged at 2040×g for 10 minutes. All other samples were analyzed without centrifugation. HPLC method 1 was used for HPLC profiling. Selected samples were analyzed by HPLC method 2 for comparison with the metabolite profile generated by microsomal and hepatocyte incubations (Examples 14 and 15) and with the metabolite profile of liver extracts.
Percent of the administered dose (% AD) for parent drug and each metabolite at each collection period=(% of the total radioactivity in the sample attributed to the metabolite)*(total radioactivity expressed as % of the administered dose, recovered during the corresponding collection period).
HPLC analyses of pooled urine samples of all time points were conducted for Group 1C. Metabolites R1, R2, R3, R4, R5, R6, R7 and R8 were characterized based on retention time.
For the PO dose group, a pooled urine sample from the 24-h collection time was analyzed. For 1-, 2-, and 6-h collection times, the majority of the samples had been used for radioanalysis. The remaining samples were insufficient for proportional pooling. Therefore, single animal samples of […] groups were used for HPLC profiling. Metabolites R^1, R^2, R^3, R^4, R^5, R^6, R^7 and R^8 were characterized based on retention time.
Table 50 contains data from single animal samples and pooled samples. To estimate overall distribution of urinary metabolites, it was assumed that the profile from a single animal is reflective of the overall average metabolite profile. Therefore, HPLC distribution data from single animals was used to calculate the percentage of administered dose excreted as various metabolites during the 1-, 2-, and 6-h collection intervals. Metabolites R1, R2, R3, R4, R5, R6, R7 and R8 were characterized based on retention time.

CC(C)(CO)C(=O)SCCOP(=O)(NCc1ccccc1)OC[C@H]1O[C@@H](n2cnc3c(=O)[nH]c(N)nc32)[C@](C)(O)[C@@H]1O (stereo partly shown) [[^14C] Compound 1]
Plasma total radioactivity concentration, Mean ([1]; IV 50 mg/kg, 0 h (pre-dose)): 0.000 μg Equivalents/mL | Plasma total radioactivity concentration, Mean ([1]; IV 50 mg/kg, 0.083 h): 43.692 μg Equivalents/mL | Plasma total radioactivity concentration, Mean ([1]; IV 50 mg/kg, 0.25 h): 9.195 μg Equivalents/mL | Plasma total radioactivity concentration, Mean ([1]; IV 50 mg/kg, 0.5 h): 4.311 μg Equivalents/mL | Plasma total radioactivity concentration, Mean ([1]; IV 50 mg/kg, 0.75 h): 1.835 μg Equivalents/mL | Plasma total radioactivity concentration, Mean ([1]; IV 50 mg/kg, 1 h): 1.399 μg Equivalents/mL | Plasma total radioactivity concentration, Mean ([1]; IV 50 mg/kg, 2 h): 2.175 μg Equivalents/mL | Plasma total radioactivity concentration, Mean ([1]; IV 50 mg/kg, 4 h): 0.799 μg Equivalents/mL | Plasma total radioactivity concentration, Mean ([1]; IV 50 mg/kg, 6 h): 2.652 μg Equivalents/mL | Plasma total radioactivity concentration, Mean ([1]; IV 50 mg/kg, 10 h): 0.605 μg Equivalents/mL | Plasma total radioactivity concentration, Mean ([1]; IV 50 mg/kg, 24 h): 0.570 μg Equivalents/mL | Plasma total radioactivity concentration ([1]; IV 50 mg/kg, Group 1A, 0.25 h, 50 mg/kg): 10.883 μg Equivalents/mL and 9.006 μg Equivalents/mL and 7.913 μg Equivalents/mL and 8.978 μg Equivalents/mL | Plasma total radioactivity concentration ([1]; IV 50 mg/kg, Group 1A, 1 h, 50 mg/kg): 1.371 μg Equivalents/mL and 1.358 μg Equivalents/mL and 1.600 μg Equivalents/mL and 1.267 μg Equivalents/mL | Plasma total radioactivity concentration ([1]; IV 50 mg/kg, Group 1A, 2 h, 50 mg/kg): 2.202 μg Equivalents/mL and 1.861 μg Equivalents/mL and 2.545 μg Equivalents/mL and 2.092 μg Equivalents/mL | Plasma total radioactivity concentration ([1]; IV 50 mg/kg, Group 1B, 0 h (pre-dose)): 0.000 μg Equivalents/mL | Plasma total radioactivity concentration ([1]; IV 50 mg/kg, Group 1B, 0.75 h, 50 mg/kg): 1.576 μg Equivalents/mL and 1.600 μg Equivalents/mL and 1.710 μg Equivalents/mL and 2.454 μg Equivalents/mL | Plasma total radioactivity concentration ([1]; IV 50 mg/kg, Group 1B, 4 h, 50 mg/kg): 0.755 μg Equivalents/mL and 0.713 μg Equivalents/mL and 0.938 μg Equivalents/mL and 0.790 μg Equivalents/mL | Plasma total radioactivity concentration ([1]; IV 50 mg/kg, Group 1B, 6 h, 50 mg/kg): 2.376 μg Equivalents/mL and 2.233 μg Equivalents/mL and 2.160 μg Equivalents/mL and 3.837 μg Equivalents/mL | Plasma total radioactivity concentration ([1]; IV 50 mg/kg, Group 1C, 0.083 h, 50 mg/kg): 50.653 μg Equivalents/mL and 45.178 μg Equivalents/mL and 35.246 μg Equivalents/mL and 37.600 μg Equivalents/mL | Plasma total radioactivity concentration ([1]; IV 50 mg/kg, Group 1C, 0.5 h, 50 mg/kg): 4.824 μg Equivalents/mL and 4.036 μg Equivalents/mL and 4.072 μg Equivalents/mL and 3.857 μg Equivalents/mL | Plasma total radioactivity concentration ([1]; IV 50 mg/kg, Group 1C, 10 h, 50 mg/kg): 0.566 μg Equivalents/mL and 0.675 μg Equivalents/mL and 0.573 μg Equivalents/mL and 0.562 μg Equivalents/mL | Plasma total radioactivity concentration ([1]; IV 50 mg/kg, Group 1C, 24 h, 50 mg/kg): 0.515 μg Equivalents/mL and 0.759 μg Equivalents/mL and 0.553 μg Equivalents/mL and 0.453 μg Equivalents/mL | AUC0-24 of plasma total radioactivity ([1]; IV 50 mg/kg): 36.000 μg equivalents · h/mL | Plasma total radioactivity concentration, Mean ([1]; PO 100 mg/kg, 0 h (pre-dose)): 0.000 μg Equivalents/mL | Plasma total radioactivity concentration, Mean ([1]; PO 100 mg/kg, 0.083 h): 0.283 μg Equivalents/mL | Plasma total radioactivity concentration, Mean ([1]; PO 100 mg/kg, 0.25 h): 0.346 μg Equivalents/mL | Plasma total radioactivity concentration, Mean ([1]; PO 100 mg/kg, 0.5 h): 0.316 μg Equivalents/mL | Plasma total radioactivity concentration, Mean ([1]; PO 100 mg/kg, 0.75 h): 0.315 μg Equivalents/mL | Plasma total radioactivity concentration, Mean ([1]; PO 100 mg/kg, 4 h): 0.625 μg Equivalents/mL | Plasma total radioactivity concentration, Mean ([1]; PO 100 mg/kg, 6 h): 1.331 μg Equivalents/mL | Plasma total radioactivity concentration, Mean ([1]; PO 100 mg/kg, 10 h): 0.622 μg Equivalents/mL | Plasma total radioactivity concentration, Mean ([1]; PO 100 mg/kg, 24 h): 0.399 μg Equivalents/mL | Plasma total radioactivity concentration ([1]; PO 100 mg/kg, Group 2A, 0.25 h, 100 mg/kg): 0.216 μg Equivalents/mL and 0.433 μg Equivalents/mL and 0.474 μg Equivalents/mL and 0.260 μg Equivalents/mL | Plasma total radioactivity concentration ([1]; PO 100 mg/kg, Group 2B, 0 h (pre-dose)): 0.000 μg Equivalents/mL | Plasma total radioactivity concentration ([1]; PO 100 mg/kg, Group 2B, 0.75 h, 100 mg/kg): 0.346 μg Equivalents/mL and 0.327 μg Equivalents/mL and 0.331 μg Equivalents/mL and 0.256 μg Equivalents/mL | Plasma total radioactivity concentration ([1]; PO 100 mg/kg, Group 2B, 4 h, 100 mg/kg): 0.578 μg Equivalents/mL and 0.618 μg Equivalents/mL and 0.675 μg Equivalents/mL and 0.630 μg Equivalents/mL | Plasma total radioactivity concentration ([1]; PO 100 mg/kg, Group 2B, 6 h, 100 mg/kg): 1.157 μg Equivalents/mL and 1.163 μg Equivalents/mL and 1.522 μg Equivalents/mL and 1.480 μg Equivalents/mL | Plasma total radioactivity concentration ([1]; PO 100 mg/kg, Group 2C, 0.083 h, 100 mg/kg): 0.228 μg Equivalents/mL (2×) and 0.394 μg Equivalents/mL and 0.596 μg Equivalents/mL | Plasma total radioactivity concentration ([1]; PO 100 mg/kg, Group 2C, 0.5 h, 100 mg/kg): 0.236 μg Equivalents/mL and 0.335 μg Equivalents/mL and 0.378 μg Equivalents/mL and 0.408 μg Equivalents/mL | Plasma total radioactivity concentration ([1]; PO 100 mg/kg, Group 2C, 10 h, 100 mg/kg): 0.806 μg Equivalents/mL and 0.555 μg Equivalents/mL and 0.506 μg Equivalents/mL and 0.511 μg Equivalents/mL | Plasma total radioactivity concentration ([1]; PO 100 mg/kg, Group 2C, 24 h, 100 mg/kg): 0.450 μg Equivalents/mL and 0.303 μg Equivalents/mL and 0.458 μg Equivalents/mL and 0.384 μg Equivalents/mL | AUC0-24 of plasma total radioactivity ([1]; PO 100 mg/kg): 15.445 μg equivalents · h/mL

CC(C)(CO)C(=O)SCCOP(N)(=O)OC[C@H]1O[C@@H](n2cnc3c(=O)[nH]c(N)nc32)[C@](C)(O)[C@@H]1O (single isomer, unassigned; diastereomer 1) [Compd 3 Diastereomer 1]
% AD (percent of administered dose) ([2]; 1 h collection): 0.05 % AD | % HPLC (percent of HPLC peak area in the sample extract) ([2]; 1 h collection): 0.24% | % AD (percent of administered dose) ([2]; 2 h collection): 0.05 % AD | % HPLC (percent of HPLC peak area in the sample extract) ([2]; 2 h collection): 1.01% | % AD (percent of administered dose) ([2]; 6 h collection): 0.01 % AD | % HPLC (percent of HPLC peak area in the sample extract) ([2]; 6 h collection): 0.37% | % of total urinary excretion [2]: 0.25% | Total % AD [2]: 0.12 % AD

CC(C)(CO)C(=O)SCCOP(N)(=O)OC[C@H]1O[C@@H](n2cnc3c(=O)[nH]c(N)nc32)[C@](C)(O)[C@@H]1O (single isomer, unassigned; diastereomer 2) [Compd 3 Diastereomer 2]
% AD (percent of administered dose) ([2]; 1 h collection): 0.23 % AD | % HPLC (percent of HPLC peak area in the sample extract) ([2]; 1 h collection): 1.00% | % AD (percent of administered dose) ([2]; 2 h collection): 0.14 % AD | % HPLC (percent of HPLC peak area in the sample extract) ([2]; 2 h collection): 2.69% | % AD (percent of administered dose) ([2]; 6 h collection): 0.03 % AD | % HPLC (percent of HPLC peak area in the sample extract) ([2]; 6 h collection): 1.19% | % of total urinary excretion [2]: 0.84% | Total % AD [2]: 0.39 % AD
